Like-named read-outs stand apart in the source and are kept apart here.
Molecular target: STAT3 (Homo sapiens, UniProt P40763)
Experiment: STAT3 HiBiT degradation assay in transfected A549 cells
Format: cell-based
Parameters: expressed in transfected cells; host or cells: A549
Experimental: Compound preparation and Cell seeding: The transfected A549 cells were harvested from dish into cell culture medium and cell numbers counted. Cells were diluted with culture medium to the desired density and 30 μL of cell suspension (about 2000 cells/well) were added into each well of a 384-well cell culture plate as designated and transferred into 37° C. 5% CO2 incubator for 24 h. Compounds were dissolved to 10 mM stock solution and 12 μL of the stock solution was transferred to a 384 LDV-plate. 3 fold, 10-point dilution was performed by transferring 4 μL compound into 8 μL DMSO using a TECAN (EVO200) liquid handler. 30 μL of diluted compound from compound source plate was transferred into the cell plate as designated by using Echo550 and transferred into 37° C. 5% CO2 incubator for 24 h.
Detection: Plates were removed from incubators and equilibrated at room temperature for 15 minutes. Nano-Glo Hibit Lytic Detection reagent (Promega Cat #N3040) was thawed and equilibrated to room temperature before the experiment. 30 μL of Nano-Glo Hibit Lytic Detection reagent was added into each well to be detected. The plates were held at room temperature for 10 min followed by reading on EnSpire.
Data analysis: The remaining activity was calculated following the formula: Remaining Activity (%)=100%×(Lumsample−LumNC)/(LumPC−LumNC). Calculate the IC50 by fitting the curve using Xlfit (v5.3.1.3), equation 201: fit=(A+((B−A)/(1+((x/C)^D)))); A: Bottom; B: Top; C: IC50; and D: Slope.
The letter codes for STAT3 DC50 include: A (<0.01 μM), B (0.01-0.1 μM), C (0.1-1.0 μM), and D (>1.0 μM).

[1] = A549, 24 h; read-out: STAT3 HiBiT A549 degradation 24 h: Average external-Abs DC50

Sequence of STAT3 (P40763 whole entry): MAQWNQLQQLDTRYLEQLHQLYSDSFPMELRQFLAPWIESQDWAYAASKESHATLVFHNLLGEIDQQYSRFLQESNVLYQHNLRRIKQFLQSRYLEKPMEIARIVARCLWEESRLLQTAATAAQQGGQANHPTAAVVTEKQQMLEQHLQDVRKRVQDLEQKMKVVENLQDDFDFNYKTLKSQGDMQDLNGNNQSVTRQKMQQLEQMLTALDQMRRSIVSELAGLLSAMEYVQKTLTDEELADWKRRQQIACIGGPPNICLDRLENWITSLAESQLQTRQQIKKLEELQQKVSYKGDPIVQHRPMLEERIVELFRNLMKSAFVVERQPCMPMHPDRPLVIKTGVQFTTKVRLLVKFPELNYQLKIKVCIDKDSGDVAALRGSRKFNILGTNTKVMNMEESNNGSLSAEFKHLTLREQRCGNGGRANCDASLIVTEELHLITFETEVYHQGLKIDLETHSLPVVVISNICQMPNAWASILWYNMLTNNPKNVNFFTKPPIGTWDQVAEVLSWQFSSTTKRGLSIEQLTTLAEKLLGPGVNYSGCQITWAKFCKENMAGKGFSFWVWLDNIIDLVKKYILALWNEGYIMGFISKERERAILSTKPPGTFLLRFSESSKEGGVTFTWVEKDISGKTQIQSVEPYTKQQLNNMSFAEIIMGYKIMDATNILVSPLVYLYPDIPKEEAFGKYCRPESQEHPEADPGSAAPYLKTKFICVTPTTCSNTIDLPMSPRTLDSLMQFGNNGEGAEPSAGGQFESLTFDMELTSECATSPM

| Structure (SMILES) | DC50 [1] [µM] | DC50 (read-out: STAT3 HiBiT A549 degradation 24 h: Average external-Abs DC50; A549, 24 h) [µM] |
| --- | --- | --- |
| Cc1ncsc1-c1ccc(CNC(=O)[C@@H]2C[C@@H](O)CN2C(=O)[C@@H](NC(=O)CCc2cccc3cc(CO[C@H](C)[C@H](CCC(N)=O)NC(=O)[C@@H]4Cc5cccc6c5N4C(=O)[C@@H](NC(=O)c4cc5cc(C(=O)P(=O)(O)O)ccc5[nH]4)CC6)ccc23)C(C)(C)C)cc1 [Compound I-136, diammonium 2-[[(2S,11S)-2-[[(3S,4R)-1-carbamoyl-4-[[5-(2-[[(2S)-1-[(2S,4R)-4-hydroxy-2-([[4-(4-methyl-1,3-thiazol-5-yl)phenyl]methyl]carbamoyl)pyrrolidin-1-yl]-3,3-dimethyl-1-oxobutan-2-yl]carbamoyl]ethyl)naphthalen-2-yl]methoxy]pentan-3-yl]carbamoyl]-12-oxo-1-azatricyclo[6.4.1.0^[4,13]]trideca-4(13),5,7-trien-11-yl]carbamoyl]-1H-indole-5-carbonylphosphonate] | > 1 | – |
| Cc1ncsc1-c1ccc(CNC(=O)[C@@H]2C[C@@H](O)CN2C(=O)[C@@H](NC(=O)CCCCc2ccc(CO[C@H](C)[C@H](CCC(N)=O)NC(=O)[C@@H]3[C@@H]4C[C@@H]4CN3C(=O)[C@H](CC(C)C)NC(=O)c3cc4cc(C(=O)P(=O)(O)O)ccc4[nH]3)cc2)C(C)(C)C)cc1 [Compound I-137, diammonium 2-[[(2S)-1-[(1R,2S,5S)-2-[[(3S,4R)-1-carbamoyl-4-[[4-(4-[[(2S)-1-[(2S,4R)-4-hydroxy-2-([[4-(4-methyl-1,3-thiazol-5-yl)phenyl]methyl]carbamoyl)pyrrolidin-1-yl]-3,3-dimethyl-1-oxobutan-2-yl]carbamoyl]butyl)phenyl]methoxy]pentan-3-yl]carbamoyl]-3-azabicyclo[3.1.0]hexan-3-yl]-4-methyl-1-oxopentan-2-yl]carbamoyl]-1H-indole-5-carbonylphosphonate] | – | 0.01 to 0.1 |
| Cc1ncsc1-c1ccc(CNC(=O)[C@@H]2C[C@@H](O)CN2C(=O)[C@@H](NC(=O)CCCc2ccc(CNC(=O)[C@H](CCC(N)=O)NC(=O)[C@@H]3Cc4cccc5c4N3C(=O)[C@@H](NC(=O)c3cc4cc(C(=O)P(=O)(O)O)ccc4[nH]3)CC5)cc2)C(C)(C)C)cc1 [Compound I-138] | > 1 | – |
| Cc1ncsc1-c1ccc(CNC(=O)[C@@H]2C[C@@H](O)CN2C(=O)C(NC(=O)CCCCc2ccc(CNC(=O)[C@H](CCC(N)=O)NC(=O)[C@@H]3Cc4cccc5c4N3C(=O)[C@@H](NC(=O)c3cc4cc(C(=O)P(=O)(O)O)ccc4[nH]3)CC5)cc2)C(C)(C)C)cc1 (stereo partly shown) [Compound I-139] | > 1 | – |
| Cc1ncsc1-c1ccc(CNC(=O)[C@@H]2C[C@@H](O)CN2C(=O)[C@@H](NC(=O)CCCCCc2ccc(CNC(=O)[C@H](CCC(N)=O)NC(=O)[C@@H]3Cc4cccc5c4N3C(=O)[C@@H](NC(=O)c3cc4cc(C(=O)P(=O)(O)O)ccc4[nH]3)CC5)cc2)C(C)(C)C)cc1 [Compound I-140] | > 1 | – |
| Cc1ncsc1-c1ccc([C@H](C)NC(=O)[C@@H]2C[C@@H](O)CN2C(=O)[C@@H](NC(=O)CCCCc2ccc(COC[C@H](CCC(N)=O)NC(=O)[C@@H]3Cc4cccc5c4N3C(=O)[C@@H](NC(=O)c3cc4cc(C(=O)P(=O)(O)O)ccc4[nH]3)CC5)cc2)C(C)(C)C)cc1 [Compound I-141, diammonium 2-[[(2S,11S)-2-[[(2S)-4-carbamoyl-1-[[4-(4-[[(2S)-1-[(2S,4R)-4-hydroxy-2-[[(1S)-1-[4-(4-methyl-1,3-thiazol-5-yl)phenyl]ethyl]carbamoyl]pyrrolidin-l-yl]-3,3-dimethyl-1-oxobutan-2-yl]carbamoyl]butyl)phenyl]methoxy]butan-2-yl]carbamoyl]-12-oxo-1-azatricyclo[6.4.1.0^[4,13]]trideca-4(13),5,7-trien-11-yl]carbamoyl]-1H-indole-5-carbonylphosphonate] | 0.01 to 0.1 | – |
| C/C(=C\C(=O)N[C@H]1CCc2cccc3c2N(C1=O)[C@H](C(=O)N[C@@H](CCC(N)=O)[C@@H](C)OCc1ccc(CCCCC(=O)N[C@H](C(=O)N2C[C@H](O)C[C@H]2C(=O)N[C@@H](C)c2ccc(-c4scnc4C)cc2)C(C)(C)C)cc1)C3)c1cccc(C(F)(F)P(=O)(O)O)c1 [Compound I-142] | > 1 | – |
| C/C(=C\C(=O)N[C@H]1CN(C(=O)CCCCCCc2ccc3c(c2)n(C)c(=O)n3C2CCC(=O)NC2=O)CC[C@H]2CC[C@@H](C(=O)N[C@@H](CCC(N)=O)C(=O)NC(c3ccccc3)c3ccccc3)N2C1=O)c1cccc(C(F)(F)P(=O)(O)O)c1 (stereo partly drawn) [Compound I-143, [3-[(1E)-1-[[(8S,10aR)-8-[[(1S)-3-carbamoyl-1-(diphenylmethylcarbamoyl)propyl]carbamoyl]-3-[7-[1-(2,6-dioxopiperidin-3-yl)-3-methyl-2-oxo-1,3-benzodiazol-5-yl]heptanoyl]-6-oxo-octahydropyrrolo[1,2-a][1,5]diazocin-5-yl]carbamoyl]prop-1-en-2-yl]phenyl]difluoromethylphosphonic acid] | > 1 | – |
| Cc1ncsc1-c1ccc(CNC(=O)[C@@H]2C[C@@H](O)CN2C(=O)[C@@H](NC(=O)Cc2cccc(-c3ccc(CO[C@H](C)[C@H](CCC(N)=O)NC(=O)[C@@H]4Cc5cccc6c5N4C(=O)[C@@H](NC(=O)c4cc5cc(C(=O)P(=O)(O)O)ccc5[nH]4)CC6)cc3)c2)C(C)(C)C)cc1 [Compound I-145, 2-[[(2S,11S)-2-[[(3S,4R)-1-carbamoyl-4-[[3'-([[(2S)-1-[(2S,4R)-4-hydroxy-2-([[4-(4-methyl-1,3-thiazol-5-yl)phenyl]methyl]carbamoyl)pyrrolidin-1-yl]-3,3-dimethyl-1-oxobutan-2-yl]carbamoyl]methyl)-[1,1'-biphenyl]-4-yl]methoxy]pentan-3-yl]carbamoyl]-12-oxo-1-azatricyclo[6.4.1.0^[4,13]]trideca-4(13),5,7-trien-11-yl]carbamoyl]-1H-indole-5-carbonylphosphonic acid] | > 1 | – |
| Cc1ncsc1-c1ccc(CNC(=O)[C@@H]2C[C@@H](O)CN2C(=O)[C@@H](NC(=O)[C@H]2C[C@H](Cc3ccc(CO[C@H](C)[C@H](CCC(N)=O)NC(=O)[C@@H]4Cc5cccc6c5N4C(=O)[C@@H](NC(=O)c4cc5cc(C(=O)P(=O)(O)O)ccc5[nH]4)CC6)cc3)C2)C(C)(C)C)cc1 [Compound I-146, diammonium 2-[[(2S,11S)-2-[[(3S,4R)-1-carbamoyl-4-[(4-[[(1r,3r)-3-[[(2S)-1-[(2S,4R)-4-hydroxy-2-([[4-(4-methyl-1,3-thiazol-5-yl)phenyl]methyl]carbamoyl)pyrrolidin-1-yl]-3,3-dimethyl-1-oxobutan-2-yl]carbamoyl]cyclobutyl]methyl]phenyl)methoxy]pentan-3-yl]carbamoyl]-12-oxo-1-azatricyclo[6.4.1.0^[4,13]]trideca-4(13),5,7-trien-11-yl]carbamoyl]-1H-indole-5-carbonylphosphonate] | 0.1 to 1 | – |
| Cc1ncsc1-c1ccc(CNC(=O)[C@@H]2C[C@@H](O)CN2C(=O)[C@@H](NC(=O)CCCCCCCC(=O)N2CC[C@H]3CC[C@@H](C(=O)N[C@@H](CCC(N)=O)C(=O)NC(c4ccccc4)c4ccccc4)N3C(=O)[C@@H](NC(=O)c3cc4cc(C(=O)P(=O)(O)O)ccc4[nH]3)C2)C(C)(C)C)cc1 [Compound I-147] | > 1 | – |
| Cc1ncsc1-c1ccc([C@H](C)NC(=O)[C@@H]2C[C@H](O)CN2C(=O)[C@@H](NC(=O)CCCCc2ccc(CO[C@H](C)[C@H](CCC(N)=O)NC(=O)[C@@H]3Cc4cccc5c4N3C(=O)[C@@H](NC(=O)c3cc4cc(C(=O)P(=O)(O)O)ccc4[nH]3)CC5)cc2)C(C)(C)C)cc1 [Compound I-149, diammonium 2-[[(2S,11S)-2-[[(3S,4R)-1-carbamoyl-4-[[4-(4-[[(2S)-1-[(2S,4S)-4-hydroxy-2-[[(1S)-1-[4-(4-methyl-1,3-thiazol-5-yl)phenyl]ethyl]carbamoyl]pyrrolidin-1-yl]-3,3-dimethyl-1-oxobutan-2-yl]carbamoyl]butyl)phenyl]methoxy]pentan-3-yl]carbamoyl]-12-oxo-1-azatricyclo [6.4.1.0^[4,13]]trideca-4(13),5,7-trien-11-yl]carbamoyl]-1H-indole-5-carbonylphosphonate] | > 1 | – |
| CN1C(=O)CCC(n2c(=O)n(C)c3cc(CCCCCCC(=O)N4CC[C@H]5CC[C@@H](C(=O)N[C@@H](CCC(N)=O)C(=O)NC(c6ccccc6)c6ccccc6)N5C(=O)[C@@H](NC(=O)c5cc6cc(C(=O)P(=O)(O)O)ccc6[nH]5)C4)ccc32)C1=O (stereo partly drawn) [Compound I-150, 2-[[(5S,8S,10aR)-8-[[(1S)-3-carbamoyl-1-(diphenylmethylcarbamoyl)propyl]carbamoyl]-3-[7-[3-methyl-1-(1-methyl-2,6-dioxopiperidin-3-yl)-2-oxo-1,3-benzodiazol-5-yl]heptanoyl]-6-oxo-octahydropyrrolo[1,2-a][1,5]diazocin-5-yl]carbamoyl]-1H-indole-5-carbonylphosphonic acid] | > 1 | – |

From patent US12077555B2, “STAT degraders and uses thereof” (Kymera Therapeutics, Inc., priority 2019, dated 2024)
